In ChEMBL document CHEMBL4020758, “Anti-atherosclerotic activities of flavonoids from the flowers of Helichrysum arenarium L. MOENCH through the pathway of anti-inflammation” (Bioorg Med Chem Lett, 2017) one finds Activity and inhibition data, which are given here for seven compounds.

Assay [1] relates to A7R5. The assay is described as follows: Antiproliferative activity against rat A7r5 cells at 100 uM after 24 hrs by MTT assay. The format is functional, cell-based. Background: Tetrazolium assays rely on reduction of a dye to a coloured formazan, in cell work by metabolically active cells.
For assay [2], the system named is Thoracic aorta. In words: Anti-atherosclerosis activity in Sprague-Dawley rat thoracic aortic vascular ring endothelial injury model assessed as appearance of smooth vascular endothelial surface after 13 days by hematoxylin and eosin staining based assay. The class given is functional, tissue-based.
The subject of assay [3] is Thoracic aorta. The assay is described as follows: Anti-atherosclerosis activity in Sprague-Dawley rat thoracic aortic vascular ring endothelial injury model assessed as decrease in CRP level at 50 uM by ELISA. The class given is functional, tissue-based. On the technique in general: An ELISA detects its analyte on a solid surface through an enzyme-linked reagent.
Assay [4] deals with Thoracic aorta. In words: Anti-atherosclerosis activity in Sprague-Dawley rat thoracic aortic vascular ring endothelial injury model assessed as reduction in vascular endothelial proliferation after 13 days by hematoxylin and eosin staining based assay. The class given is functional, tissue-based.
Assay [5] relates to Thoracic aorta. The assay is described as follows: Anti-atherosclerosis activity in Sprague-Dawley rat thoracic aortic vascular ring endothelial injury model assessed as decrease in p38 level at 25 to 50 uM by ELISA. The class given is functional, tissue-based.
The subject of assay [6] is Thoracic aorta. The assay is described as follows: Anti-atherosclerosis activity in Sprague-Dawley rat thoracic aortic vascular ring endothelial injury model assessed as decrease in VEGF level at 50 uM by ELISA. The class given is functional, tissue-based.
In assay [7] the test system is Thoracic aorta. The assay is described as follows: Anti-atherosclerosis activity in Sprague-Dawley rat thoracic aortic vascular ring endothelial injury model assessed as decrease in CRP level at 25 uM by ELISA. The format is functional, tissue-based.
The subject of another assay is RAW264.7. The assay is described as follows: Anti-inflammatory activity in mouse RAW264.7 cells assessed as inhibition of LPS/IFN-induced NO production at 10 to 20 uM measured 48 hrs post LPS/IFN challenge by Griess assay. The class given is functional, cell-based.
The subject of assay [8] is A7R5. The assay is described as follows: Antiproliferative activity against rat A7r5 cells at 50 uM after 24 hrs by MTT assay. The format is functional, cell-based.
Assay [9] concerns Thoracic aorta. In words: Anti-atherosclerosis activity in Sprague-Dawley rat thoracic aortic vascular ring endothelial injury model assessed as decrease in JNK2 level at 50 uM by ELISA. The format is functional, tissue-based.
Assay [10] relates to A7R5. The assay is described as follows: Antiproliferative activity against rat A7r5 cells at 10 uM after 24 hrs by MTT assay. The class given is functional, cell-based.
Assay [11] has as its system Thoracic aorta. The assay is described as follows: Anti-atherosclerosis activity in Sprague-Dawley rat thoracic aortic vascular ring assessed as restoration of injured vessel after 13 days by hematoxylin and eosin staining based assay. The class given is functional, tissue-based.
Assay [12] concerns Thoracic aorta. The assay is described as follows: Anti-atherosclerosis activity in Sprague-Dawley rat thoracic aortic vascular ring endothelial injury model assessed as decrease in VEGF level at 25 uM by ELISA. The class given is functional, tissue-based.
Assay [13] concerns Thoracic aorta. The assay is described as follows: Anti-atherosclerosis activity in Sprague-Dawley rat thoracic aortic vascular ring endothelial injury model assessed as decrease in CRP level by ELISA. The format is functional, tissue-based.
For assay [14], the system named is Thoracic aorta. In words: Anti-atherosclerosis activity in Sprague-Dawley rat thoracic aortic vascular ring endothelial injury model assessed as decrease in JNK2 level at 25 uM by ELISA. The format is functional, tissue-based.

SMILES strings stand for the structures. The source made the active and inactive calls. The rule behind the calls is not given here.

Regarding `O=C1C[C@@H](c2ccc(O)c(O)c2)Oc2cc(O)cc(O)c21`, the outcome in the assay on A7R5 [1], with Thoracic aorta [4] and with A7R5 [10] was inactive. Also, the result in the assay with Thoracic aorta [2], with Thoracic aorta [3], with Thoracic aorta [5], with Thoracic aorta [6], in the assay with Thoracic aorta [7] and in the assay with A7R5 [8] was Active. Moreover, in the assay on Thoracic aorta [9], the result was Active. Besides, in the assay on RAW264.7, the inhibition result was “Active”.

With `O=c1cc(-c2ccc(O)c(O)c2)oc2cc(O[C@@H]3O[C@H](CO)[C@@H](O)[C@H](O)[C@H]3O)cc(O)c12`, the outcome with A7R5 [1], with Thoracic aorta [4] and in the assay with A7R5 [10] was inactive. For the same compound, the outcome in the assay on Thoracic aorta [2], with Thoracic aorta [3], in the assay with Thoracic aorta [6], in the assay with Thoracic aorta [7] and with A7R5 [8] was Active. For the same compound, the inhibition entry in the assay on RAW264.7 was “Active”.

Take `O=c1c(O[C@@H]2O[C@H](CO)[C@@H](O)[C@H](O)[C@H]2O)c(-c2ccc(O)cc2)oc2cc(O)cc(O)c12`: the outcome in the assay with A7R5 [1] and in the assay with A7R5 [10] was inactive. The result with Thoracic aorta [2], with Thoracic aorta [3], in the assay with Thoracic aorta [4], with Thoracic aorta [6], with Thoracic aorta [7] and in the assay with A7R5 [8] was Active. The result in the assay with Thoracic aorta [11] and in the assay on Thoracic aorta [9] was Active. Besides, the inhibition entry with RAW264.7 is “Active”.

Consider `C[C@@H]1O[C@@H](O[C@H]2[C@H](Oc3cc(O)c4c(c3)O[C@H](c3ccc(O)cc3)CC4=O)O[C@H](CO)[C@@H](O)[C@@H]2O)[C@H](O)[C@H](O)[C@H]1O`, for which the result in the assay with A7R5 [1], with Thoracic aorta [4], in the assay on A7R5 [8] and in the assay with A7R5 [10] was inactive. Besides, the result in the assay with Thoracic aorta [2], in the assay on Thoracic aorta [3], with Thoracic aorta [5], with Thoracic aorta [6] and in the assay with Thoracic aorta [9] was Active. In the assay with RAW264.7, the inhibition entry was “Active”.

`O=c1cc(-c2ccc(O)c(O)c2)oc2cc(O)cc(O)c12`: the outcome in the assay on A7R5 [1], with Thoracic aorta [4], in the assay with A7R5 [8] and in the assay on A7R5 [10] was inactive. Besides, the outcome with Thoracic aorta [2], with Thoracic aorta [3], in the assay on Thoracic aorta [6], in the assay with Thoracic aorta [7] and with Thoracic aorta [12] was Active. For the same compound, in the assay with RAW264.7, the inhibition entry was “Active”.

`C[C@@H]1O[C@@H](OC[C@H]2O[C@@H](Oc3cc(O)c4c(c3)O[C@H](c3ccc(O)cc3)CC4=O)[C@H](O)[C@@H](O)[C@@H]2O)[C@H](O)[C@H](O)[C@H]1O`: the outcome in the assay with A7R5 [1], in the assay with Thoracic aorta [4], in the assay on A7R5 [8] and in the assay with A7R5 [10] was inactive. For the same compound, the outcome in the assay on Thoracic aorta [2], in the assay on Thoracic aorta [3], in the assay on Thoracic aorta [5] and in the assay on Thoracic aorta [6] was Active. In addition, the inhibition entry in the assay on RAW264.7 was “Active”.

On to `O=c1c(O)c(-c2ccc(O)cc2)oc2cc(O)cc(O)c12`, for which the outcome in the assay on A7R5 [1], in the assay on Thoracic aorta [4] and in the assay with A7R5 [10] was inactive. In addition, the Activity entry in the assay with Thoracic aorta [13] was “Dose-dependent effect”. Further, the result with Thoracic aorta [2], in the assay on Thoracic aorta [14], in the assay with Thoracic aorta [3], in the assay on Thoracic aorta [6], with Thoracic aorta [7] and in the assay on A7R5 [8] was Active. The outcome in the assay on Thoracic aorta [12] and in the assay with Thoracic aorta [9] was Active. In addition, in the assay on RAW264.7, the inhibition result was “Active”.
